Experimental findings from paper PMC5908784, “Extracellular loops 2 and 3 of the calcitonin receptor selectively modify agonist binding and efficacy” (Biochemical Pharmacology, 2018) are described below.

Molecules are shown by their SMILES. Positions count from the first letter of the chain named. Where a SMILES comes first, the peptide text is derived from it. Bridges are numbered along the chain shown (N, C = ends).

One assay has as its target T1, hCTR R281A (Homo sapiens, UniProt P30988, R281A).
T1 construct: expressed in transfected cells
T1 sequence (P30988 25-474 R281A): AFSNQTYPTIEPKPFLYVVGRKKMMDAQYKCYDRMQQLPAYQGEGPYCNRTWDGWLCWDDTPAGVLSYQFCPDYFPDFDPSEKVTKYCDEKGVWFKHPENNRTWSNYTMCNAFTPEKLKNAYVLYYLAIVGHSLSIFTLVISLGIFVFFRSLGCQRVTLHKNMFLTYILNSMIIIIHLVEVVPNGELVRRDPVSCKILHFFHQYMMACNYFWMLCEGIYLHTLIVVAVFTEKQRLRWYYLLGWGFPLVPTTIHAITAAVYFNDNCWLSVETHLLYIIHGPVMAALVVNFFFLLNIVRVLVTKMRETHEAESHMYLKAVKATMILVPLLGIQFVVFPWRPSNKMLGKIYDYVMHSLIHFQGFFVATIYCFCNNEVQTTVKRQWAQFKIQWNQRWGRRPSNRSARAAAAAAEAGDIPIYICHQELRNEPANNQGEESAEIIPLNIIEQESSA
In words: Heterologous whole cell competition binding. The note with it: heterologous competition of 125I-sCT(8-32), whole cells, mean ± S.E.M., SEM. As to the method:
(§1) Following overnight incubation non-bound ligand was removed and radioactivity was determined using a gamma counter.
(§2) Data were corrected for radioligand occupancy using the Cheng-Prusoff equation in Prism; as such data are reported as pKi. Emax and EC50 were estimated from concentration-response curves using with a 3-parameter logistic equation in Prism (v7). These values are a composite of functional affinity, efficacy and stimulus response coupling. […] Significance was accepted at P < 0.05.

In the next assay the target is T2, hCTR G369A (Homo sapiens, UniProt P30988, G369A).
T2 construct: c-Myc (N); expressed in transfected cells
T2 sequence (P30988 25-474 G369A): T1 sequence (P30988 25-474 R281A) with A257R, G345A
Kind of assay: Heterologous whole cell competition binding. The note with it: heterologous competition of 125I-sCT(8-32), whole cells, mean ± S.E.M., SEM. How it is done: as §1, §2

The target of another assay is T3, hCTR V358A (Homo sapiens, UniProt P30988, V358A).
T3 construct: c-Myc (N); expressed in transfected cells
T3 sequence (P30988 25-474 V358A): T1 sequence (P30988 25-474 R281A) with A257R, V334A
In words: Heterologous whole cell competition binding. The note with it: heterologous competition of 125I-sCT(8-32), whole cells, mean ± S.E.M., SEM. How it is done:
as §1, §2

The next assay addresses T4, hCTR S364A (Homo sapiens, UniProt P30988, S364A).
T4 construct: c-Myc (N); expressed in transfected cells
T4 sequence (P30988 25-474 S364A): T1 sequence (P30988 25-474 R281A) with A257R, S340A
In words: Heterologous whole cell competition binding. The note with it: heterologous competition of 125I-sCT(8-32), whole cells, mean ± S.E.M., SEM. As to the method:
as §1, §2

The target in a further assay is T5, hCTR P363A (Homo sapiens, UniProt P30988, P363A).
T5 construct: expressed in transfected cells
T5 sequence (P30988 25-474 P363A): T1 sequence (P30988 25-474 R281A) with A257R, P339A
Kind of assay: IP1 accumulation. It is filed as cell-based. The note with it: mean ± S.E.M.; for Emax: IP1 maximal response, SEM. A digest of the protocol:
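Concentration-response curves were fitted to a 3-parameter logistic model to estimate EC50 and Emax. Cells had been exposed to ligand for 60 min with LiCl, and lysate IP1 determined by HTRF, with normalization to 100 μM ATP.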

As to `CSCC[C@H](NC(=O)CNC(=O)[C@H](CO)NC(=O)[C@H](Cc1ccccc1)NC(=O)[C@H](CCCNC(=N)N)NC(=O)[C@H](Cc1c[nH]cn1)NC(=O)[C@H](Cc1ccccc1)NC(=O)[C@H](CC(N)=O)NC(=O)[C@H](CC(N)=O)NC(=O)[C@H](CC(C)C)NC(=O)[C@H](CC(N)=O)NC(=O)[C@H](CCCNC(=N)N)NC(=O)[C@H](Cc1c[nH]c2ccccc12)NC(=O)[C@H](Cc1ccc(O)cc1)NC(=O)[C@H](C)NC(=O)[C@H](CO)NC(=O)[C@H](CC(C)C)NC(=O)[C@@H](NC(=O)[C@@H]1CSSC[C@H](N)C(=O)N[C@@H](CO)C(=O)N[C@@H](CC(N)=O)C(=O)N[C@@H](CC(C)C)C(=O)N[C@@H](CO)C(=O)N[C@@H]([C@@H](C)O)C(=O)N1)C(C)C)C(=O)NCC(=O)N[C@@H](Cc1ccccc1)C(=O)NCC(=O)N1CCC[C@H]1C(=O)N[C@@H](CCC(=O)O)C(=O)N[C@H](C(=O)N1CCC[C@H]1C(N)=O)[C@@H](C)O` [pCT] (H-CSNLSTCVLSAYWRNLNNFHRFSGMGFGPETP-NH2; disulfide 1-7), the Ki was 66.1 nM at hCTR R281A, 7.94 nM on hCTR G369A, 14.5 nM at hCTR V358A and 5.37 nM on hCTR S364A. Further, a half-maximal effect at hCTR P363A (IP1, CV1-FlpIn cells, 60 min, LiCl) (EC50) was put at 6.17 nM. Besides, the Emax on hCTR P363A was found to be 73 ± 10%.
Compound `CC(C)C[C@H](NC(=O)[C@H](CCCCN)NC(=O)CNC(=O)[C@H](CC(C)C)NC(=O)[C@@H](NC(=O)[C@@H]1CSSC[C@H](N)C(=O)N[C@@H](CO)C(=O)N[C@@H](CC(N)=O)C(=O)N[C@@H](CC(C)C)C(=O)N[C@@H](CO)C(=O)N[C@@H]([C@@H](C)O)C(=O)N1)C(C)C)C(=O)N[C@@H](CO)C(=O)N[C@@H](CCC(N)=O)C(=O)N[C@@H](CCC(=O)O)C(=O)N[C@@H](CC(C)C)C(=O)N[C@@H](Cc1c[nH]cn1)C(=O)N[C@@H](CCCCN)C(=O)N[C@@H](CC(C)C)C(=O)N[C@@H](CCC(N)=O)C(=O)N[C@H](C(=O)N[C@@H](Cc1ccc(O)cc1)C(=O)N1CCC[C@H]1C(=O)N[C@@H](CCCNC(=N)N)C(=O)N[C@H](C(=O)N[C@@H](CC(N)=O)C(=O)N[C@H](C(=O)NCC(=O)N[C@@H](CO)C(=O)NCC(=O)N[C@H](C(=O)N1CCC[C@H]1C(N)=O)[C@@H](C)O)[C@@H](C)O)[C@@H](C)O)[C@@H](C)O` [sCT] yielded an Emax on hCTR P363A of 86 ± 9%.
